In patent publication US6420330B1, “Use of quaternary carboxylic acid alkanolamine ester salts as microbicide agents” (Cognis Deutschland GmbH, priority 1997, dated 2002):

The compounds below were run on Pseudomonas aeruginosa ATCC 15442 (assay: DGHM suspension test, microbicidal activity). Details: CU 200 mg/l; contact time 30 mins.
Type: cell-based
Protocol: (§1) The microbicidal activity of the quanterary carboxylic acid alkanolamine ester salts used in accordance with the invention was tested against the following selected test germs:
(§2) The effectiveness of the compound to be tested was determined by the suspension test in accordance with the guidelines of the Deutsche Gesellschaft for Hygiene and Mikrobiologie (DGHM). Test solutions containing quatemary carboxylic acid alkanolamine ester salts in the quantities shown in the Tables of 50, 100, 200, 400 and 800 mg/l were prepared using water with a hardness of 17° dH and optionally isopropanol.
(§3) At room temperatures, quantities of 0.1 ml test germ suspension were pipetted into test tubes containing 10 ml of the test solutions described above and mixed. After various contact times of 5, 15, 30 and 60 minutes, 1 ml of material was taken from the test tubes by pipette and transferred to 9 ml inactivator solution (inactivators: 3.0% Tween, 0.3% lecithin, 0.1% histidine). After in activation for at least 5 and at most 30 minutes, the living germ count was determined by plating out onto casein peptone-soybean flour peptone (CaSo)-agar plates. Using a spiral plater, the inactivating mixture was directly plated out onto CaSo-agar. The samples were incubated for 24 to 72 hours at 37° C. and macroscopically evaluated for growth. The destruction time or the residual germ count was determined in this way. The germ count of an unchallenged water control is related to the germ count of the inactivated test solution taking the dilution into account. The higher the value, the better the microbicidal effect. The symbol < means that the logarithmic reductuon factor is below the indicated value or, in the case of the symbol >, above the indicated value. The abbreviation CU stands for “concentration used”.

Compound	logarithmic reduction factor
CCCCCCCCCC(=O)OCC[N+](C)(CCO)CCOC(=O)CCCCCCCCC.COS(=O)(=O)[O-] [Example 6, methyl triethanolammonium dicapric acid ester methosulfate]	3.35

Same assay, conditions: CU 200 mg/l; contact time 60 mins.

Compound	logarithmic reduction factor
CCCCCCCCCC(=O)OCC[N+](C)(CCO)CCOC(=O)CCCCCCCCC.COS(=O)(=O)[O-] [Example 6, methyl triethanolammonium dicapric acid ester methosulfate]	3.89

Same assay, conditions: CU 400 mg/l; contact time 5 mins.

Compound	logarithmic reduction factor
CCCCCCCCCC(=O)OCC[N+](C)(CCO)CCOC(=O)CCCCCCCCC.COS(=O)(=O)[O-] [Example 6, methyl triethanolammonium dicapric acid ester methosulfate]	<1.85

Same assay, conditions: CU 400 mg/l; contact time 15 mins.

Compound	logarithmic reduction factor
CCCCCCCCCC(=O)OCC[N+](C)(CCO)CCOC(=O)CCCCCCCCC.COS(=O)(=O)[O-] [Example 6, methyl triethanolammonium dicapric acid ester methosulfate]	<1.79

Same assay, conditions: CU 400 mg/l; contact time 30 mins.

Compound	logarithmic reduction factor
CCCCCCCCCC(=O)OCC[N+](C)(CCO)CCOC(=O)CCCCCCCCC.COS(=O)(=O)[O-] [Example 6, methyl triethanolammonium dicapric acid ester methosulfate]	4.18

Same assay, conditions: CU 400 mg/l; contact time 60 mins.

Compound	logarithmic reduction factor
CCCCCCCCCC(=O)OCC[N+](C)(CCO)CCOC(=O)CCCCCCCCC.COS(=O)(=O)[O-] [Example 6, methyl triethanolammonium dicapric acid ester methosulfate]	>5.81

Same assay, conditions: CU 800 mg/l; contact time 5 mins.

Compound	logarithmic reduction factor
CCCCCCCCCC(=O)OCC[N+](C)(CCO)CCOC(=O)CCCCCCCCC.COS(=O)(=O)[O-] [Example 6, methyl triethanolammonium dicapric acid ester methosulfate]	<1.85

Same assay, conditions: CU 800 mg/l; contact time 15 mins.

Compound	logarithmic reduction factor
CCCCCCCCCC(=O)OCC[N+](C)(CCO)CCOC(=O)CCCCCCCCC.COS(=O)(=O)[O-] [Example 6, methyl triethanolammonium dicapric acid ester methosulfate]	4.14

Same assay, conditions: CU 800 mg/l; contact time 30 mins.

Compound	logarithmic reduction factor
CCCCCCCCCC(=O)OCC[N+](C)(CCO)CCOC(=O)CCCCCCCCC.COS(=O)(=O)[O-] [Example 6, methyl triethanolammonium dicapric acid ester methosulfate]	4.76

Same assay, conditions: CU 800 mg/l; contact time 60 mins.

Compound	logarithmic reduction factor
CCCCCCCCCC(=O)OCC[N+](C)(CCO)CCOC(=O)CCCCCCCCC.COS(=O)(=O)[O-] [Example 6, methyl triethanolammonium dicapric acid ester methosulfate]	>5.81

What follows are compounds tested on Staphylococcus aureus ATCC 6538 (assay: DGHM suspension test, microbicidal activity). Details: CU 50 mg/l; contact time 5 mins.
Type: cell-based
Protocol: as §1, §2, §3

Compound	logarithmic reduction factor
CCCCCCCCCC(=O)OCC[N+](C)(CCO)CCOC(=O)CCCCCCCCC.COS(=O)(=O)[O-] [Example 6, methyl triethanolammonium dicapric acid ester methosulfate]	4.12

Same assay, conditions: CU 50 mg/l; contact time 15 mins.

Compound	logarithmic reduction factor
CCCCCCCCCC(=O)OCC[N+](C)(CCO)CCOC(=O)CCCCCCCCC.COS(=O)(=O)[O-] [Example 6, methyl triethanolammonium dicapric acid ester methosulfate]	>5.73

Same assay, conditions: CU 50 mg/l; contact time 30 mins.

Compound	logarithmic reduction factor
CCCCCCCCCC(=O)OCC[N+](C)(CCO)CCOC(=O)CCCCCCCCC.COS(=O)(=O)[O-] [Example 6, methyl triethanolammonium dicapric acid ester methosulfate]	>5.75

Same assay, conditions: CU 50 mg/l; contact time 60 mins.

Compound	logarithmic reduction factor
CCCCCCCCCC(=O)OCC[N+](C)(CCO)CCOC(=O)CCCCCCCCC.COS(=O)(=O)[O-] [Example 6, methyl triethanolammonium dicapric acid ester methosulfate]	>5.86

Same assay, conditions: CU 100 mg/l; contact time 5 mins.

Compound	logarithmic reduction factor
CCCCCCCCCC(=O)OCC[N+](C)(CCO)CCOC(=O)CCCCCCCCC.COS(=O)(=O)[O-] [Example 6, methyl triethanolammonium dicapric acid ester methosulfate]	4.58

Same assay, conditions: CU 100 mg/l; contact time 15 mins.

Compound	logarithmic reduction factor
CCCCCCCCCC(=O)OCC[N+](C)(CCO)CCOC(=O)CCCCCCCCC.COS(=O)(=O)[O-] [Example 6, methyl triethanolammonium dicapric acid ester methosulfate]	>5.73

Same assay, conditions: CU 100 mg/l; contact time 30 mins.

Compound	logarithmic reduction factor
CCCCCCCCCC(=O)OCC[N+](C)(CCO)CCOC(=O)CCCCCCCCC.COS(=O)(=O)[O-] [Example 6, methyl triethanolammonium dicapric acid ester methosulfate]	>5.75

Same assay, conditions: CU 100 mg/l; contact time 60 mins.

Compound	logarithmic reduction factor
CCCCCCCCCC(=O)OCC[N+](C)(CCO)CCOC(=O)CCCCCCCCC.COS(=O)(=O)[O-] [Example 6, methyl triethanolammonium dicapric acid ester methosulfate]	>5.86

Same assay, conditions: CU 200 mg/l; contact time 5 mins.

Compound	logarithmic reduction factor
CCCCCCCCCC(=O)OCC[N+](C)(CCO)CCOC(=O)CCCCCCCCC.COS(=O)(=O)[O-] [Example 6, methyl triethanolammonium dicapric acid ester methosulfate]	4.55

Same assay, conditions: CU 200 mg/l; contact time 15 mins.

Compound	logarithmic reduction factor
CCCCCCCCCC(=O)OCC[N+](C)(CCO)CCOC(=O)CCCCCCCCC.COS(=O)(=O)[O-] [Example 6, methyl triethanolammonium dicapric acid ester methosulfate]	>5.73

Same assay, conditions: CU 200 mg/l; contact time 30 mins.

Compound	logarithmic reduction factor
CCCCCCCCCC(=O)OCC[N+](C)(CCO)CCOC(=O)CCCCCCCCC.COS(=O)(=O)[O-] [Example 6, methyl triethanolammonium dicapric acid ester methosulfate]	>5.75

Same assay, conditions: CU 200 mg/l; contact time 60 mins.

Compound	logarithmic reduction factor
CCCCCCCCCC(=O)OCC[N+](C)(CCO)CCOC(=O)CCCCCCCCC.COS(=O)(=O)[O-] [Example 6, methyl triethanolammonium dicapric acid ester methosulfate]	>5.86

Same assay, conditions: CU 400 mg/l; contact time 5 mins.

Compound	logarithmic reduction factor
CCCCCCCCCC(=O)OCC[N+](C)(CCO)CCOC(=O)CCCCCCCCC.COS(=O)(=O)[O-] [Example 6, methyl triethanolammonium dicapric acid ester methosulfate]	4.48

Same assay, conditions: CU 400 mg/l; contact time 15 mins.

Compound	logarithmic reduction factor
CCCCCCCCCC(=O)OCC[N+](C)(CCO)CCOC(=O)CCCCCCCCC.COS(=O)(=O)[O-] [Example 6, methyl triethanolammonium dicapric acid ester methosulfate]	>5.73

Same assay, conditions: CU 400 mg/l; contact time 30 mins.

Compound	logarithmic reduction factor
CCCCCCCCCC(=O)OCC[N+](C)(CCO)CCOC(=O)CCCCCCCCC.COS(=O)(=O)[O-] [Example 6, methyl triethanolammonium dicapric acid ester methosulfate]	>5.75

Same assay, conditions: CU 400 mg/l; contact time 60 mins.

Compound	logarithmic reduction factor
CCCCCCCCCC(=O)OCC[N+](C)(CCO)CCOC(=O)CCCCCCCCC.COS(=O)(=O)[O-] [Example 6, methyl triethanolammonium dicapric acid ester methosulfate]	>5.86

Same assay, conditions: CU 800 mg/l; contact time 5 mins.

Compound	logarithmic reduction factor
CCCCCCCCCC(=O)OCC[N+](C)(CCO)CCOC(=O)CCCCCCCCC.COS(=O)(=O)[O-] [Example 6, methyl triethanolammonium dicapric acid ester methosulfate]	5.44

Same assay, conditions: CU 800 mg/l; contact time 15 mins.

Compound	logarithmic reduction factor
CCCCCCCCCC(=O)OCC[N+](C)(CCO)CCOC(=O)CCCCCCCCC.COS(=O)(=O)[O-] [Example 6, methyl triethanolammonium dicapric acid ester methosulfate]	>5.73

Same assay, conditions: CU 800 mg/l; contact time 30 mins.

Compound	logarithmic reduction factor
CCCCCCCCCC(=O)OCC[N+](C)(CCO)CCOC(=O)CCCCCCCCC.COS(=O)(=O)[O-] [Example 6, methyl triethanolammonium dicapric acid ester methosulfate]	>5.75

Same assay, conditions: CU 800 mg/l; contact time 60 mins.

Compound	logarithmic reduction factor
CCCCCCCCCC(=O)OCC[N+](C)(CCO)CCOC(=O)CCCCCCCCC.COS(=O)(=O)[O-] [Example 6, methyl triethanolammonium dicapric acid ester methosulfate]	>5.86
